Results reported in patent EP4813978A1, “COMPOUND TARGETING UBIQUITIN KRAS PROTEIN DEGRADATION AGENT, AND USE THEREOF” (Betta Pharmaceuticals Co., Ltd, priority 2023, dated 2025).

Assays:
Type in all cases: cell-based
AGS = assay: Cell proliferation assay (Cell-titer Glo), AGS; conditions: KRAS G12D, 96 h
Description: (§1) Cells with different mutations were seeded in low-attachment transparent 96-well plates at the seeding densities shown in Table 1, and incubated overnight in a cell culture incubator. After the cells adhered, the test compounds were added to the 96-well plates at final concentrations of 20000 nM, 5000 nM, 1250 nM, 312.5 nM, 78.13 nM, 19.53 nM, 4.88 nM, 1.22 nM, 0.31 nM, 0 nM (the final concentration of DMSO was 0.25% in all wells). After culturing at 37°C for 96 h, 50 µL of Cell-titer Glo working solution was added to each well. The plates were shaken to mix and then incubated at room temperature for 10 min. Luminescence values were read on a multimode microplate reader, and the luminescence data were converted into percentage inhibition. The percentage of cell proliferation inhibition was calculated according to the following formula: Percentage inhibition = (1−(TestValue−Blank)/(MaxValue−Blank)) × 100% [formula]
(§2) ("Max value" is from the 0.25% DMSO control wells, "Blank" is from the blank medium control wells, and "Test Value" is from the compound-treated wells).
(§3) Curve fitting was performed using GraphPad Prism software to obtain IC50 (nM) values.

H358 = assay: Cell proliferation assay (Cell-titer Glo), H358; conditions: Homo sapiens, NCI-H358, H358, KRAS G12C, 96 h
Description: as §1, §2, §3

SW620 = assay: Cell proliferation assay (Cell-titer Glo), SW620; conditions: Homo sapiens, SW-620, SW620, KRAS G12V, 96 h
Description: as §1, §2, §3

Mia-Paca2 = assay: Cell proliferation assay (Cell-titer Glo), Mia-Paca2; conditions: 96 h
Description: as §1, §2, §3

MKN-1 = assay: Cell proliferation assay (Cell-titer Glo), MKN-1; conditions: Homo sapiens, MKN-1, KRAS WT-Amp, 96 h
Description: as §1, §2, §3

AsPC-1 = assay: Cell proliferation assay (Cell-titer Glo), AsPC-1; conditions: Homo sapiens, ASPC1, AsPC-1, KRAS G12D, 96 h
Description: as §1, §2, §3

Panc0403 = assay: Cell proliferation assay (Cell-titer Glo), Panc0403; conditions: Homo sapiens, Panc 04.03, Panc0403, KRAS G12D, 96 h
Description: as §1, §2, §3

[1] = Homo sapiens, MIA PaCa-2, Mia-Paca2, KRAS G12C

Molecule	IC50 (AGS; Homo sapiens) [nM]	IC50 (H358) [nM]	IC50 (SW620) [nM]	further results
(2S,4R)-1-((2S)-2-(4-(5-((1-((1-(((7-(8-ethyl-7-fluoro-3-hydroxynaphthalen-1-yl)-8-fluoro-4-(3-h ydroxy-3-methylazepan-1-yl)pyrido[4,3-d]pyrimidin-2-yl)oxy)methyl)cyclopropyl)methyl)piperi din-4-yl)oxy)pyrazin-2-yl)-1H-1,2,3-triazol-1-yl)-3-methylbutanoyl)-4-hydroxy-N-((S)-1-(4-(4-methylthiazol-5-yl)phenyl)ethyl)pyrrolidine-2-carboxamide [Compound 134]				IC50 (AGS): 34 nM; IC50 (Mia-Paca2; Mia-Paca2, KRAS G12C): 67 nM
CCc1c(F)ccc2cc(O)cc(-c3ncc4c(N5CCCCC(=O)C5)nc(OCC5(CN6CCC(Oc7cnc(-c8cn([C@H](C(=O)N9C[C@H](O)C[C@H]9C(=O)N[C@@H](C)c9ccc(-c%10scnc%10C)cc9)C(C)C)nn8)cn7)CC6)CC5)nc4c3F)c12 [Compound 113, (2S,4R)-1-((S)-2-(4-(5-((1-((1-(((7-(8-ethyl-7-fluoro-3-hydroxynaphthalen-1-yl)-8-fluoro-4-(3-oxoazepan-1-yl)pyrido[4,3-d]pyrimidin-2-yl)oxy)methyl)cyclopropyl)methyl)piperidin-4-yl)oxy)pyrazin-2-yl)-1H-1,2,3-triazol-1-yl)-3-methylbutanoyl)-4-hydroxy-N-((S)-1-(4-(4-methylthiazol-5-yl)phenyl)ethyl)pyrrolidine-2-carboxamide]	80		325	
CCc1c(F)ccc2cc(O)cc(-c3ncc4c(N5CCCC6(CCO6)C5)nc(OCC5(CN6CCN(c7ccc(-c8cn([C@H](C(=O)N9C[C@H](O)C[C@H]9C(=O)N[C@@H](C)c9ccc(-c%10scnc%10C)cc9)C(C)C)nn8)cn7)CC6)CC5)nc4c3F)c12 (stereo partly drawn) [Compound 111, (2S,4R)-1-((2S)-2-(4-(6-(4-((1-(((7-(8-ethyl-7-fluoro-3-hydroxynaphthalen-1-yl)-8-fluoro-4-(1-oxa-6-azaspiro[3.5]nonan-6-yl)pyrido[4,3-d]pyrimidin-2-yl)oxy)methyl)cyclopropyl)methyl)piperazin-1-yl)pyridin-3-yl)-1H-1,2,3-triazol-1-yl)-3-methylbutanoyl)-4-hydroxy-N-((S)-1-(4-(4-methylthiazol-5-yl)phenyl)ethyl)pyrrolidine-2-carboxamide]	30	56	43	
CCc1c(F)ccc2cc(O)cc(-c3ncc4c(N5CCCOCC5)nc(OCC5(CN6CCC(Oc7cnc(-c8cn([C@H](C(=O)N9C[C@H](O)C[C@H]9C(=O)N[C@@H](C)c9ccc(-c%10scnc%10C)cc9)C(C)C)nn8)cn7)CC6)CC5)nc4c3F)c12 [Compound 5, (2S,4R)-1-((S)-2-(4-(5-((1-((1-(((7-(8-ethyl-7-fluoro-3-hydroxynaphthalen-1-yl)-8-fluoro-4-(1,4-oxazepan-4-yl)pyrido[4,3-d]pyrimidin-2-yl)oxy)methyl)cyclopropyl)methyl)piperidin-4-yl)oxy)pyrazin-2-yl)-1H-1,2,3-triazol-1-yl)-3-methylbutanoyl)-4-hydroxy-N-((S)-1-(4-(4-methylthiazol-5-yl)phenyl)ethyl)pyrrolidine-2-carboxamide]	20	55	34	

Further molecules by falling IC50 (AGS; Homo sapiens), results first:

IC50 (AGS; Homo sapiens) [nM]	IC50 (H358) [nM]	IC50 (SW620) [nM]	Molecule	further results
15	40	36	CCc1c(F)ccc2cc(O)cc(-c3nc4c5c(nc(OCC6(CN7CCC(Oc8cnc(-c9cn([C@H](C(=O)N%10C[C@H](O)C[C@H]%10C(=O)N[C@@H](C)c%10ccc(-c%11scnc%11C)cc%10)C(C)C)nn9)cn8)CC7)CC6)nc5c3F)N3CCCC(C)(O)C3CO4)c12 (stereo partly drawn) [Compound 133, (2S,4R)-1-((2S)-2-(4-(5-((1-((1-(((5-(8-ethyl-7-fluoro-3-hydroxynaphthalen-1-yl)-4-fluoro-9-hydroxy-9-methyl-8,8a,9,10,11,12-hexahydro-7-oxa-1,3,6,12a-tetraazabenzo[4,5]cyclohepta[1,2,3-de]naphthalen-2-yl)oxy)methyl)cyclopropyl)methyl)piperidin-4-yl)oxy)pyrazin-2-yl)-1H-1,2,3-triazol-1-yl)-3-methylbutanoyl)-4-hydroxy-N-((S)-1-(4-(4-methylthiazol-5-yl)phenyl)ethyl)pyrrolidine-2-carboxamide]	IC50 (Mia-Paca2; [1]): 26 nM
6.2		31	CCc1c(F)ccc2cc(O)cc(-c3ncc4c(N5CCCS(=O)(=O)C5)nc(OCC5(CN6CCC(Oc7cnc(-c8cn([C@H](C(=O)N9C[C@H](O)C[C@H]9C(=O)N[C@@H](C)c9ccc(-c%10scnc%10C)cc9)C(C)C)nn8)cn7)CC6)CC5)nc4c3F)c12 [Compound 7, (2S,4R)-1-((S)-2-(4-(5-((1-((1-(((4-(1,1-dioxido-1,3-thiazinan-3-yl)-7-(8-ethyl-7-fluoro-3-hydroxynaphthalen-1-yl)-8-fluoropyrido[4,3-d]pyrimidin-2-yl)oxy)methyl)cyclopropyl)methyl)piperidin-4-yl)oxy)pyrazin-2-yl)-1H-1,2,3-triazol-1-yl)-3-methylbutanoyl)-4-hydroxy-N-((S)-1-(4-(4-methylthiazol-5-yl)phenyl)ethyl)pyrrolidine-2-carboxamide]	
5	20	18	CCc1c(F)ccc2cc(O)cc(-c3ncc4c(N5CCC[C@](O)(CC#N)C5)nc(OCC5(CN6CCC(Oc7cnc(-c8cn([C@H](C(=O)N9C[C@H](O)C[C@H]9C(=O)N[C@@H](C)c9ccc(-c%10scnc%10C)cc9)C(C)C)nn8)cn7)CC6)CC5)nc4c3F)c12 [Compound 57, (2S,4R)-1-((S)-2-(4-(5-((1-((1-(((4-((S)-3-(cyanomethyl)-3-hydroxypiperidin-1-yl)-7-(8-ethyl-7-fluoro-3-hydroxynaphthalen-1-yl)-8-fluoropyrido[4,3-d]pyrimidin-2-yl)oxy)methyl)cyclopropyl)methyl)piperidin-4-yl)oxy)pyrazin-2-yl)-1H-1,2,3-triazol-1-yl)-3-methylbutanoyl)-4-hydroxy-N-((S)-1-(4-(4-methylthiazol-5-yl)phenyl)ethyl)pyrrolidine-2-carboxamide]	
4.4		20	CCc1c(F)ccc2cc(O)cc(-c3nc4c5c(nc(OCC6(CN7CCC(Oc8cnc(-c9cn([C@H](C(=O)N%10C[C@H](O)C[C@H]%10C(=O)N[C@@H](C)c%10ccc(-c%11scnc%11C)cc%10)C(C)C)nn9)cn8)CC7)CC6)nc5c3F)N3CCCOC[C@H]3CO4)c12 [Compound 112, (2S,4R)-1-((S)-2-(4-(5-((1-((1-((((S)-2-(8-ethyl-7-fluoro-3-hydroxynaphthalen-1-yl)-1-fluoro-5a, 6,9,10-tetrahydro-5H,8H-4,7-dioxa-3,10a,11,13-tetraazanaphtho[1,8-ab]heptalen-12-yl)oxy)methyl)cyclopropyl)methyl)piperidin-4-yl)oxy)pyrazin-2-yl)-1H-1,2,3-triazol-1-yl)-3-methylbutanoyl)-4-hydroxy-N-((S)-1-(4-(4-methylthiazol-5-yl)phenyl)ethyl)pyrrolidine-2-carboxamide]	IC50 (MKN-1): 0.4 nM; IC50 (AsPC-1): 2.6 nM; IC50 (Panc0403): 6.5 nM
4.4	8.4	15	CCc1c(F)ccc2cc(O)cc(-c3ncc4c(N5CCOC[C@@](C)(O)C5)nc(OCC5(CN6CCC(Oc7cnc(-c8cn([C@H](C(=O)N9C[C@H](O)C[C@H]9C(=O)N[C@@H](CN(C)C)c9ccc(-c%10scnc%10C)cc9)C(C)C)nn8)cn7)CC6)CC5)nc4c3F)c12 [Compound 131, (2S,4R)-N-((R)-2-(dimethylamino)-1-(4-(4-methylthiazol-5-yl)phenyl)ethyl)-1-((S)-2-(4-(5-((1-((1-(((7-(8-ethyl-7-fluoro-3-hydroxynaphthalen-1-yl)-8-fluoro-4-((S)-6-hydroxy-6-methyl-1,4-oxazepan-4-yl)pyrido[4,3-d]pyrimidin-2-yl)oxy)methyl)cyclopropyl)methyl)piperidin-4-yl)oxy)pyrazin-2-yl)-1H-1,2,3-triazol-1-yl)-3-methylbutanoyl)-4-hydroxypyrrolidine-2-carboxamide]	IC50 (Mia-Paca2; [1]): 5.3 nM
2.7		10	CCc1c(F)ccc2cc(O)cc(-c3ncc4c(N5CCOC[C@@](C)(O)C5)nc(OCC5(CN6CCC(Oc7cnc(-c8cn([C@H](C(=O)N9C[C@H](O)C[C@H]9C(=O)N[C@@H](C)c9ccc(-c%10scnc%10C)cc9)C(C)C)nn8)cn7)CC6)CC5)nc4c3F)c12 [Compound 114, (2S,4R)-1-((S)-2-(4-(5-((1-((1-(((7-(8-ethyl-7-fluoro-3-hydroxynaphthalen-1-yl)-8-fluoro-4-((S)-6-hydroxy-6-methyl-1,4-oxazepan-4-yl)pyrido[4,3-d]pyrimidin-2-yl)oxy)methyl)cyclopropyl)methyl)piperidin-4-yl)oxy)pyrazin-2-yl)-1H-1,2,3-triazol-1-yl)-3-methylbutanoyl)-4-hydroxy-N-((S )-1-(4-(4-methylthiazol-5-yl)phenyl)ethyl)pyrrolidine-2-carboxamide]	
